Data reported in US8389764B2, “Urea and sulfamide derivatives as inhibitors of TAFIa” (Sanofi, priority 2006, dated 2013).
Numbered stars: 1 amine (or outer) side, 2 acyl side, 3 side chain; on linkers, the order of the positions; unused ones are H or OH. Square brackets hold non-standard residues; d marks the D form. Peptide text beside a SMILES is read from it. * marks the point of attachment. ξ: configuration not given here. dCha = N[C@H](CC1CCCCC1)C(=O)O; Phe(ol) = N[C@H](CO)Cc1ccccc1; Ac5c = NC1(C(=O)O)CCCC1; Cbz = O=C(OCc1ccccc1)*; CO = O=C([*:1])[*:2]; ξV = CC(C)C(N)C(=O)O

The compounds below were run against T1, TAFIa (Homo sapiens, UniProt Q96IY4) (assay: TAFIa inhibition, Actichrome plasma TAFI activity kit (American Diagnostica)). Conditions: 15 min preincubation at room temperature, read at 420 nm, duplicate determination of serial dilutions.
T1 construct: purchased American Diagnostica 874TAFIA
T1 sequence (Q96IY4 115-423): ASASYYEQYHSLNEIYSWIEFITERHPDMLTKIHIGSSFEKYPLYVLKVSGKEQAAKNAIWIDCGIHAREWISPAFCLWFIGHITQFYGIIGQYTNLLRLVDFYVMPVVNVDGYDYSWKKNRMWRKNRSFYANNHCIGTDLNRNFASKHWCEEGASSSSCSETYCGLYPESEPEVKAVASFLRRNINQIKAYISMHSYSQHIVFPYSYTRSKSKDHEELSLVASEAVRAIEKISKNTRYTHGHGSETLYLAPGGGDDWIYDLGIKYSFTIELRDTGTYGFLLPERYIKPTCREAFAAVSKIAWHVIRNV
Assay type: biochemical
Protocol: The enzymic reaction was started by adding 10 μl of TAFIa developer (prediluted 1:2 with assay buffer).
The IC50 values were calculated from the averaged values (duplicate determination) of serial dilutions of the substance with the aid of the Softmax Pro software (version 4.8; Molecular Devices).

| SMILES | IC50 |
| --- | --- |
| COC(=O)[C@H](Cc1ccc(O)cc1)NC(=O)[C@@H](NC(=O)[C@@H](CC1CCCCC1)NC(=O)N[C@@H](CCCCN)C(=O)O)C(C)C [Example 133] ({Lys-CO}-[dCha]-Val-Tyr-OMe) | 0.636 µM |
| Nc1ccc(CC(NC(=O)N[C@H](CC2CCCCC2)C(=O)NC2CC3CCC2C3)C(=O)O)cn1 (some centres unmarked) [Example 88] | 0.393 µM |
| CC(C)CNC(=O)[C@@H](NC(=O)[C@H](CC1CCCCC1)NS(=O)(=O)N[C@@H](CCCCN)C(=O)O)C(C)C [Example 169] | 0.77 µM |
| CC(C)CC(C)NC(=O)[C@@H](CC1CCCCC1)NC(=O)N[C@@H](CCCCN)C(=O)O (some centres unmarked) [Example 75] | 0.653 µM |
| CC1(C)C2CCC1(C)[C@@H](NC(=O)[C@@H](CC1CCCCC1)NC(=O)N[C@@H](CCCCN)C(=O)O)C2 (some centres unmarked) [Example 77] | 0.003 µM |
| CC1(C)C2CC[C@@]1(C)[C@@H](NC(=O)[C@@H](CC1CCCCC1)NC(=O)N[C@@H](CCONC(=N)N)C(=O)O)C2 [Example 107] | 1.1 µM |
| CC1CCCC(NC(=O)[C@@H](NC(=O)[C@@H](CCCCNC(=O)OCc2ccccc2)NC(=O)N[C@@H](CCCCN)C(=O)O)C(C)C)C1 (some centres unmarked) [Example 120] | 0.615 µM |
| CC(C)(C)C1CCC(NC(=O)[C@@H](CC2CCCCC2)NC(=O)N[C@@H](CCCCN)C(=O)O)CC1 (some centres unmarked) [Example 86] | 0.06 µM |
| Cc1cccc(CNC(=O)[C@@H](CC2CCCCC2)NC(=O)N[C@@H](CCCCN)C(=O)O)c1C [Example 26] | 0.487 µM |
| CCOC(=O)[C@@H](NC(=O)[C@@H](CC1CCCCC1)NC(=O)N[C@@H](CCCCN)C(=O)O)C(C)C [Example 49] ({Lys-CO}-[dCha]-Val-OEt) | 0.106 µM |
| CC(C)CCNC(=O)[C@@H](CCCCNC(=O)OCc1ccccc1)NC(=O)N[C@@H](CCCCN)C(=O)O [Example 2] | 1.42 µM |
| CC1(C)[C@@H]2CC[C@@]1(C)[C@@H](NC(=O)C(CC1CCCC1)NC(=O)N[C@@H](CCCCN)C(=O)O)C2 (some centres unmarked) [Example 111] | 0.004 µM |
| CC(C)[C@@H](NC(=O)N[C@@H](CCCCN)C(=O)O)C(=O)N[C@H]1C[C@H]2CC[C@]1(C)C2(C)C [Example 97] | 0.462 µM |
| CC(C)[C@H](NC(=O)[C@@H](CCCCNC(=O)OCc1ccccc1)NC(=O)N[C@@H](CCCCN)C(=O)O)C(=O)NC1C[C@@H]2CC[C@H]1C2 (some centres unmarked) [Example 115] | 0.239 µM |
| CC1(C)[C@@H]2CC[C@@]1(C)[C@@H](NC(=O)[C@@H](CC1CCCCC1)NC(=O)N[C@H](Cc1ccc(N)nc1)C(=O)O)C2 [Example 94] | 109 µM |
| NCCCC[C@H](NC(=O)N[C@H](CC1CCCCC1)C(=O)N[C@H]1CCc2ccccc2C1)C(=O)O [Example 85] | 0.039 µM |
| CC(C)[C@H](NC(=O)[C@@H](NC(=O)[C@@H](CCCCNC(=O)OCc1ccccc1)NC(=O)N[C@@H](CCCCN)C(=O)O)C(C)C)C(N)=O [Example 140] ({Lys-CO}-[dK](Cbz)-Val-Val-NH2) | 0.318 µM |
| CC1(C)[C@@H]2CC[C@@]1(C)[C@@H](NC(=O)[C@@H](CC1CCCCC1)NC(=O)N[C@@H](CSCCN)C(=O)O)C2 [Example 142a] | 0.0007 µM |
| NCCCC[C@H](NC(=O)N[C@H](CC1CCCCC1)C(=O)NCc1ccc(F)cc1F)C(=O)O [Example 11, (S)-6-Amino-2-{3-[(R)-2-cyclohexyl-1-(2,4-difluoro-benzylcarbamoyl)-ethyl]-ureido}-hexanoic acid] | 0.644 µM |
| Cc1ccccc1CCNC(=O)[C@@H](CC1CCCCC1)NC(=O)N[C@@H](CCCCN)C(=O)O [Example 13] | 1.26 µM |
| CCOC(=O)[C@@H](NC(=O)[C@@H](CCCCNC(=O)OCc1ccccc1)NC(=O)N[C@@H](CCCCN)C(=O)O)C(C)C [Example 38] ({Lys-CO}-[dK](Cbz)-Val-OEt) | 0.297 µM |
| CC(C)[C@H](NC(=O)[C@@H](CCCCNC(=O)OCc1ccccc1)NC(=O)N[C@@H](CCCCN)C(=O)O)C(=O)N[C@H](C)c1ccccc1 [Example 122] | 0.525 µM |
| CC(C)[C@H](NC(=O)[C@@H](CCCCNC(=O)OCc1ccccc1)NC(=O)N[C@@H](CCCCN)C(=O)O)C(=O)N[C@@H]1C[C@H]1c1ccccc1 [Example 127] | 0.693 µM |
| COC(=O)[C@H](Cc1c[nH]c2ccccc12)NC(=O)[C@@H](NC(=O)[C@@H](CCCCNC(=O)OCc1ccccc1)NC(=O)N[C@@H](CCCCN)C(=O)O)C(C)C [Example 134] ({Lys-CO}-[dK](Cbz)-Val-Trp-OMe) | 0.532 µM |
| CC(C)[C@H](NC(=O)[C@@H](CCCCNC(=O)OCc1ccccc1)NC(=O)N[C@@H](CCCCN)C(=O)O)C(=O)N[C@@H](C)c1ccc(Cl)cc1 [Example 119] | 1.3 µM |
| CC1CCCC(NC(=O)[C@@H](CC2CCCCC2)NC(=O)N[C@@H](CCCCN)C(=O)O)C1 (some centres unmarked) [Example 41] | 0.09 µM |
| CCNC(=O)[C@@H](NC(=O)[C@@H](CC1CCCCC1)NC(=O)N[C@@H](CCCCN)C(=O)O)C(C)C [Example 10] ({Lys-CO}-[dCha]-Val-NHEt) | 0.979 µM |

| SMILES | IC50 |
| --- | --- |
| CC(C)(C)OC(=O)[C@H](CCCCN)NS(=O)(=O)N[C@@H](CC1CCCCC1)C(=O)N[C@@H]1C[C@H]2CC[C@]1(C)C2(C)C [Example 186] | 22.9 µM |
| CC1(C)[C@@H]2CC[C@@]1(C)C(NC(=O)CC(CC1CCCCC1)NC(=O)N[C@@H](CCCN)C(=O)O)C2 (some centres unmarked) [Example 95] | 41 µM |
| CC(C)[C@H](NC(=O)[C@@H](NC(=O)[C@@H](CC1CCCCC1)NC(=O)N[C@@H](CCCCN)C(=O)O)C(C)C)C(N)=O [Example 137] ({Lys-CO}-[dCha]-Val-Val-NH2) | 0.14 µM |
| CC(CNC(=O)[C@@H](CC1CCCCC1)NC(=O)N[C@@H](CCCCN)C(=O)O)c1ccccc1 (some centres unmarked) [Example 12] | 1.26 µM |
| NCCCC[C@H](NC(=O)N[C@H](CC1CCCCC1)C(=O)NC1CCC2CCCCC2C1)C(=O)O (some centres unmarked) [Example 92] | 0.16 µM |
| CC[C@@H](C)[C@H](NC(=O)[C@@H](CCCCNC(=O)OCc1ccccc1)NC(=O)N[C@@H](CCCCN)C(=O)O)C(N)=O [Example 142] | 10.6 µM |
| CC1(C)[C@@H]2CC[C@@]1(C)[C@@H](NC(=O)[C@@H](CC1CCC1)NC(=O)N[C@@H](CCCCN)C(=O)O)C2 [Example 109] | 0.009 µM |
| CC1CCCC(NC(=O)[C@@H](CC2CCCCC2)NC(=O)N[C@@H](CCCCN)C(=O)O)C1C (some centres unmarked) [Example 72] | 0.167 µM |
| CC(C)[C@H](NC(=O)[C@@H](CCCCNC(=O)OCc1ccccc1)NC(=O)N[C@@H](CCCCN)C(=O)O)C(=O)NC(C)C(C)(C)C (some centres unmarked) [Example 126] | 0.204 µM |
| CC1(C)[C@@H]2CC[C@@]1(C)[C@@H](NC(=O)[C@@H](CC1CCCCC1)NC(=O)NC(Cc1ccc(N)nc1)C(=O)O)C2 (some centres unmarked) [Example 110] | 0.006 µM |
| CCC(C)CNC(=O)[C@@H](CC1CCCCC1)NC(=O)N[C@@H](CCCCN)C(=O)O (some centres unmarked) [Example 69] | 1.05 µM |
| COC(=O)[C@@H](NC(=O)[C@@H](NC(=O)[C@H](Cc1ccccc1)NS(=O)(=O)N[C@@H](CCCCN)C(=O)O)C(C)C)C(C)C [Example 143, (S)-6-Amino-2-(3-{(S)-1-[(S)-1-((S)-1-methoxycarbonyl-2-methyl-propylcarbamoyl)-2-methyl-propylcarbamoyl]-2-phenyl-ethyl}-sulfamidyl)-hexanoic acid] | 9.76 µM |
| CC1(C)[C@@H]2CC[C@@]1(C)[C@@H](NC(=O)[C@@H](CC1CCCCC1)NC(=O)N[C@@H](Cc1ccc(N)nc1)C(=O)O)C2 [Example 93] | 1.5 µM |
| CC1CCCCC1NC(=O)[C@@H](NC(=O)[C@@H](CCCCNC(=O)OCc1ccccc1)NC(=O)N[C@@H](CCCCN)C(=O)O)C(C)C (some centres unmarked) [Example 128] | 0.391 µM |
| C[C@@H]1C(CNC(=O)[C@@H](CC2CCCCC2)NC(=O)N[C@@H](CCCCN)C(=O)O)CC2C[C@@H]1C2(C)C (some centres unmarked) [Example 84] | 0.654 µM |
| CC[C@H](C)[C@H](NC(=O)[C@@H](CCCCNC(=O)OCc1ccccc1)NC(=O)N[C@@H](CCCCN)C(=O)O)C(=O)OC [Example 37] | 0.537 µM |
| NCCCC[C@H](NC(=O)N[C@H](CC1CCCCC1)C(=O)NC12CC3CC(CC(C3)C1)C2)C(=O)O [Example 79] | 0.031 µM |
| CC(C)C(NC(=O)[C@@H](CC1CCCCC1)NC(=O)N[C@@H](CCCCN)C(=O)O)C(=O)N[C@H](CO)Cc1ccccc1 (some centres unmarked) [Example 135] ({Lys-CO}-[dCha]-[ξV]-[Phe(ol)]) | 0.522 µM |
| CCOC(=O)[C@H](CC(C)C)NC(=O)[C@@H](CCCCNC(=O)OCc1ccccc1)NC(=O)N[C@@H](CCCCN)C(=O)O [Example 32] ({Lys-CO}-[dK](Cbz)-Leu-OEt) | 0.753 µM |
| CC1(C)[C@@H]2CC[C@@]1(C)[C@@H](NC(=O)[C@@H](CC1CC1)NC(=O)N[C@@H](CCCCN)C(=O)O)C2 [Example 108] | 0.007 µM |
| CC(C)C(NC(=O)C(NC(=O)[C@@H](CCCCNC(=O)OCc1ccccc1)NC(=O)N[C@@H](CCCNC(=N)N)C(=O)O)C(C)C)C(N)=O (some centres unmarked) [Example 139] ({Arg-CO}-[dK](Cbz)-[ξV]-[ξV]-NH2) | 0.376 µM |
| CC1(C)[C@@H]2CC[C@@]1(C)[C@@H](NC(=O)[C@H](CC1CCC1)NS(=O)(=O)N[C@@H](CCCCN)C(=O)O)C2 [Example 150] | 0.357 µM |
| CC1CCCCC1NC(=O)[C@@H](CC1CCCCC1)NC(=O)N[C@@H](CCCCN)C(=O)O (some centres unmarked) [Example 19] | 0.353 µM |
| CC(C)CNC(=O)[C@@H](CC1CCCCC1)NC(=O)N[C@@H](CCCCN)C(=O)O [Example 76] | 0.845 µM |
| COC(=O)C1(NC(=O)[C@@H](CCCCNC(=O)OCc2ccccc2)NC(=O)N[C@@H](CCCCN)C(=O)O)CCCC1 [Example 39] ({Lys-CO}-[dK](Cbz)-[Ac5c]-OMe) | 1.14 µM |
| NCCCC[C@H](NC(=O)N[C@H](CC1CCCCC1)C(=O)NC1CCc2ccccc2C1)C(=O)O (some centres unmarked) [Example 73] | 0.047 µM |
